Test: Human HepG2 cell viability assay in 384 well format
Format: toxicity, cell-based
Parameters: dose 125 nL, time 70.5 hour; concentration not given beside the values
Conditions: HepG2 cells, read-out: Inhibition

| SMILES | cytotoxicity at 70.5 h [%] |
| --- | --- |
| CCN1CCN(S(=O)(=O)c2cn(C(C)C)cn2)c2ccccc21 | -1.25 |
| CC1CCC(NC(=O)CNC2(c3cccc(Br)c3)CCOCC2)CC1 (stereo not given) | 9.26 |
| CCOC1COC2(CCN(Cc3ccc(C)c(C)c3)CC2)C1 (stereo not given) | -11 |
| CN(CCN1CCOC1=O)CC(=O)Nc1cc(F)cc(F)c1 | -19.7 |
| CO[C@@H]1CC[C@H]2[C@H]1OCCN2CC1CC1 | -83.7 |
| CCc1nnc(CN2CCN(C(=O)c3ccccn3)CC2)o1 | -21.8 |
| O=C(c1c[nH]nc1-c1cccc(F)c1)N1CCNC(c2ccccc2)C1 (stereo not given) | -9.77 |
| CCC1c2ccsc2CCN1C(=O)NCc1cccnc1OC (stereo not given) | -11.2 |
| CCC[C@@H]1CN(S(=O)(=O)c2ccc3[nH]c(=O)[nH]c3c2)C[C@H]1NC(C)=O | -1.53 |
| N#CCCSc1sc2c(O)cc(O)nc2c1C#N | 13.6 |
| Cc1cc(NCC2CCS(=O)(=O)C2)n2nc(C)cc2n1 (stereo not given) | 12.6 |
| CC(=O)N1CCCN(C(=O)NCCCN(C)S(C)(=O)=O)CC1 | -8.8 |
| CCc1cnc(CN(C)C2CCN(CCc3cccs3)C2)o1 (stereo not given) | -4.48 |
| COc1ccc(-c2nnc(CN3CCNC(=O)C3)o2)cc1 | -2.61 |
| Cc1noc(C)c1CN1CCC(c2nnc(Cn3cccn3)n2C)CC1 | -6.21 |
| CCc1nc(CN(C)C2CCN(CCC(=O)N3CCCCC3)C2)no1 (stereo not given) | 0.593 |
| CN(C)C(=O)CN1CCCN(CC2CCOc3ccccc3C2)CC1 (stereo not given) | -11.2 |
| Cn1c(N2CCOCC2)nc2cc(C(=O)NCc3cccnc3)ccc21 | -9.04 |
| O=C(Cc1ccsc1)N1CCCC(CNS(=O)(=O)Cc2ccccc2)C1 (stereo not given) | -9.34 |
| Cc1ccc(C)c(C(=O)CN2C(=O)c3ccccc3CS2(=O)=O)c1 | -15 |
| O=C(O)c1ccnc(-c2ccnc(NCCc3ccc(F)cc3)n2)c1 | -5.83 |
| COCCN1CCC(CNC(=O)C2(c3cc(C)cc(C)c3)CCC2)C1 (stereo not given) | -5.65 |
| O=C(O)CCc1cc2n(n1)CCN(Cc1ccc3[nH]ccc3c1)C2 | -2.66 |

| SMILES | cytotoxicity at 70.5 h [%] |
| --- | --- |
| CCNc1cc2c(nn1)CCN(C(=O)Cc1c(C)noc1C)C2 | 4.3 |
| CC(c1nc(C2CC2)no1)N1CCN(Cc2nnc(C3CC3)o2)CC1 (stereo not given) | -2.67 |
| N#CCCN(Cc1cccnc1)C(=O)c1ccn(-c2ccccc2)n1 | 1.01 |
| Cn1ccc(NC2CCN(C3CC3)C2=O)n1 (stereo not given) | 11.7 |
| O=C(NCc1ccc(OCC2CC2)nc1)c1c(F)cccc1F | -3.71 |
| COc1ccc(Cl)cc1CC(=O)N1CCN(CC(C)O)CC1 (stereo not given) | -5.64 |
| CCc1nc(CN2CCCN(C(=O)c3occc3C)CC2)cs1 | -7.91 |
| CCNC(=O)[C@@H]1C[C@@H](NC(=O)Cc2ccccn2)CN1CCCSC | 14.8 |
| CC(C)CC(=O)N1CCCC1c1ccsc1 (stereo not given) | -10.6 |
| Brc1ccc(C2(CNCc3cc[nH]c3)CCOCC2)cc1 | -0.56 |
| N#Cc1cccnc1NCc1ccc(S(=O)(=O)NCC2CCCO2)cc1 (stereo not given) | 14 |
| Cc1ccc(N2CCN(C(=O)CCc3ccc(O)cc3)CC2=O)cc1 | -10.1 |
| Cc1ccc(C(=O)N2CCC3(CC2)CC(N2CCCC2)C3)cc1 | -10.8 |
| CCC1CCCCN1C(=O)Cn1nc(-c2ccc(C)s2)cc(N)c1=O (stereo not given) | -2.23 |
| Cc1nc(C2CCN(C(=O)c3cscn3)CC2)c2sccn12 | -1.33 |
| O=C(c1ccc[nH]1)N1CCOCC2(C1)CN(c1ccccc1)C(=O)CO2 (stereo not given) | -9.1 |
| COc1ccc(S(=O)(=O)C(F)(F)F)cc1NC(=O)CSCC#N | 1.04 |
| Cn1cccc1C(=O)N1C[C@@H](OCc2cccnc2)[C@H]2OCCC[C@H]21 | 8.24 |
| COCCCC1(CO)CCCN(CCc2ccccc2)C1 (stereo not given) | -1.1 |
| COC(=O)N1CCCN(C(=O)c2cccc3cccnc23)CC1 | -7.61 |
| COC(=O)c1sccc1S(=O)(=O)NCCC(O)c1ccoc1 (stereo not given) | -0.756 |
| Cn1cc(CN2CC3(CCN(C(=O)c4ccoc4)C3)C2)cn1 | -6.02 |
| Cc1ccc(OCCCNC(=O)C(C)Sc2nncn2C)cc1 (stereo not given) | -12.1 |

| SMILES | cytotoxicity at 70.5 h [%] |
| --- | --- |
| OCCC1CN(c2nc(-c3ccncc3)nc3c2CCNCC3)CCO1 (stereo not given) | 2.55 |
| CC(C)NC(=O)N1CCC2(CCC(=O)N2CCN(C)C)CC1 | -8.1 |
| Cn1c(C2CC2)nc2cc(NC(=O)C3CCOC3)ccc21 (stereo not given) | -4.07 |
| NC(c1ccc(F)cc1)c1cccs1 (stereo not given) | 6.42 |
| COc1cc(Cl)ccc1C(=O)N1CCCC(n2nc(C)nc2C)C1 (stereo not given) | -0.226 |
| Cn1cccc1C(O)CNC(=O)c1cccc(Cl)c1 (stereo not given) | -9.53 |
| Cc1noc(C2CCCN(C(=O)CCNc3ncccn3)C2)n1 (stereo not given) | -13.2 |
| O=C1c2cnc(N3CCC(O)CC3)nc2CN1Cc1cccc(F)c1 | 22 |
| Cn1ncc2c(=O)[nH]c(CN3CCCC3c3ccsc3)nc21 (stereo not given) | -7.44 |
| COc1ccc(CCC2CCCCN2)cc1OC (stereo not given) | 19.8 |
| COc1cccc(CN(C)Cn2nc(C(C)(C)C)ccc2=O)c1 | 2.69 |
| CCc1nc(C2CCCN2CC(=O)Nc2cc(C)nn2C)no1 (stereo not given) | -15.1 |
| Cn1c(CN2CCC(N3CCNC3=O)CC2)cc(=O)n(C)c1=O | -7.49 |
| COC[C@H]1CNC(=O)[C@@H]2CCN(Cc3cccc(C)n3)CC[C@H]12 | 0.496 |
| CCC(C)N(C)S(=O)(=O)c1ccc(CCNC(C)=O)s1 (stereo not given) | -7 |
| COCCN(Cc1cnn(C)c1)c1nc2c(s1)c(C)nn2C | 3.84 |
| CN(C)C(=O)CN1C(=O)CCC12CCN(Cc1ccc(F)cc1)CC2 | 5.3 |
| CN1CCCC1c1ccnc(-c2ccccn2)n1 (stereo not given) | -1.8 |
| CCn1cnnc1C1CCN(C(=O)c2ccc(Cl)cc2OC)CC1 | -9.75 |
| CN(Cc1ccc(C(=O)O)cc1)C(=O)c1sccc1OC(F)F | 3.59 |
| O=C1CC(c2ccc(Cl)c(Cl)c2)c2c(n3ccsc3nc2=O)N1 (stereo not given) | 10 |
| CCc1cc(=O)n(CC(=O)N2CCCC2)c(-c2cccc(F)c2)n1 | 4.18 |
| O=C(COc1coc(CN2CCCC2)cc1=O)Nc1ccc(Cl)c(Cl)c1 | -7.3 |

| SMILES | cytotoxicity at 70.5 h [%] |
| --- | --- |
| CCc1c(C)nc2n(c1=O)CC(C(=O)Nc1ccccc1C)CS2 (stereo not given) | 4.11 |
| CN(C)c1cc(N(C)Cc2cc(C(C)(C)C)n[nH]2)ncn1 | -2.08 |
| CN(CCc1nccs1)C(=O)C1(C#N)CCCCC1 | 0.343 |
| CN(Cc1nc2ccccc2[nH]1)C(=O)C(C)(C)n1cc(Cl)cn1 | -12.7 |
| O=C(Nc1cccc(CNCc2cccnc2)c1)C1CCCC1 | -4.79 |
| CCCC(C)C(=O)Nc1ccc(OC)nc1N1CCN(C(C)=O)CC1 (stereo not given) | -6.89 |
| N#Cc1cccnc1NCCNC(=O)N1CCN2CCCCC2C1 (stereo not given) | 13.6 |
| CCCn1c(C)c(CC(=O)NC)c2c1CC(C)(C)CC2=O | -6.96 |
| O=C(Cc1ccc(O)c(Cl)c1)N1CCN(CC2CC2)[C@@H]2CS(=O)(=O)C[C@@H]21 | 17.4 |
| Cc1cc(C)nc(Nc2cc(C3CCCN(C)C3)nc(C)n2)n1 (stereo not given) | -27.7 |
| O=C(C1CCOC1)N1CCC(OCc2ccccc2)CC1 (stereo not given) | -5.49 |
| CCc1ccccc1CNC(=O)CNC(=O)C(C)(C)C | -6.65 |
| CCn1cc(S(=O)(=O)NCC(OC)c2ccccc2)cn1 (stereo not given) | -3.94 |
| CCCc1cc(NCCC2CCCOC2)n2nccc2n1 (stereo not given) | 14.3 |
| Cc1noc(NCc2cn(C)nc2-c2ccncc2)n1 | -11.4 |
| CC(C)CCN(c1cn[nH]c1)S(=O)(=O)c1cccc(C#N)c1 | 18.2 |
| O=C1CC2(CCN(Cc3ccc(-c4ccccc4)s3)C2)C(=O)N1 (stereo not given) | -3.29 |
| CN1CCO[C@@H]2CN(S(=O)(=O)c3ccccc3)CC[C@@H]2C1 | -5 |
| C[S+]([O-])CCNC(=O)N1CCSC2(CCCCC2)C1 (stereo not given) | -3.78 |
| Cc1noc(C)c1CS(=O)(=O)CC(=O)N(C)Cc1cccc(F)c1 | -3.7 |
| CN(CCn1cccn1)S(=O)(=O)c1ccc(C#N)cc1 | -8.98 |
| COc1ccc(C(=O)N2CCCS2(=O)=O)cc1 | -5.25 |
| CCN1CCCC(CNC(=O)CCc2ccc(OC)c(F)c2)C1 (stereo not given) | -14.6 |

| SMILES | cytotoxicity at 70.5 h [%] |
| --- | --- |
| COCCN1CCC(CNC(=O)C2(c3ccccc3)CCOCC2)C1 (stereo not given) | -4.78 |
| CCNc1ncnc2c1CN(C1CCCNCC1)C(=O)CN2C (stereo not given) | 1.19 |
| CC(C)CC(=O)N1CCCCC(NC(=O)CCc2cccnc2)C1 (stereo not given) | -1.04 |
| CN(CC(=O)N1CCCCC1Cn1cccn1)Cc1ccccc1 (stereo not given) | 13 |
| CN(C)C(=O)C1SCCc2ccccc21 (stereo not given) | -6.79 |
| Cc1cn2nc(N3CCCC3Cn3cncn3)sc2n1 (stereo not given) | -3.48 |
| O=C(c1cnn2c1OCCC2)N1CCN(C/C=C/c2ccccc2)CC1 | 7.17 |
| Cc1ccccc1CC(=O)N1CCN(C2CCOC2=O)CC1 (stereo not given) | -5.25 |
| COc1cccnc1NC(=O)COC1CCCC1 | 24.8 |
| NC(=O)c1ccc(N2CCCCC2)c(NC(=O)c2cc(Br)ccc2F)c1 | -5.55 |
| CC(C)C[C@H](NC(=O)Cc1csc(-c2cccc(Cl)c2)n1)C(=O)O | 19.2 |
| CC(C)c1ocnc1C(=O)N1CC(=O)Nc2cccnc21 | -1.78 |
| Cc1ccc(-c2nc(CNC(C)Cn3cccn3)cs2)o1 (stereo not given) | -3.26 |
| Cc1cc(C(F)(F)F)n2nc(C3CCN(S(C)(=O)=O)CC3)cc2n1 | -7.35 |
| Cc1cc(C(=O)N2CCCC(n3cncn3)C2)c(C)n1C1CC1 (stereo not given) | -1.59 |
| O=C(C[C@@H]1COC[C@H]2CN(C(=O)c3cccnc3)C[C@@H]12)N1CCOCC1 | -4.26 |
| CN(C)S(=O)(=O)c1ccc(CNc2ccc(Cl)cn2)cc1 | 0.742 |
| CCOc1ccccc1CNC(=O)N1CCC(n2cncn2)CC1 | -11.8 |
| Cn1cc(C2CC(=O)NC23CCN(CC2CC2)CC3)cn1 (stereo not given) | 9.8 |
| O=C(Nc1nccs1)N1CCCC(N2CCNC2=O)C1 (stereo not given) | 1.93 |
| Cc1[nH]c(-c2ccccc2)nc1C(=O)N1CCc2[nH]cnc2C1C(=O)O (stereo not given) | -8.84 |
| CCc1nc(CN2CCCN(c3ncnc4ccsc34)CC2)no1 | 8.93 |
| CC(=O)N1CCC(n2ccc(-c3cnc(NCC(C)C)nc3)n2)CC1 | -5.12 |
